From ChEMBL document CHEMBL1201862, “PubChem BioAssay data set” (2004)
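Step 1: Grow cells in 96-well plates. Step 2: Expose to compound for 48 hours at 5 concentrations. Step 3: Interpolate endpoints linearly; if unreached, use highest concentration. GI50 marks 50% less growth.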 Activity calls are given as the source filed them. Cut-off read from the data, not from the text of the source: active = GI50 up to about 1.1 µM and inactive = higher.

Key:
Test in all cases: growth of human tumour cells (NCI), 48 h
KM-20L2 = test system: KM-20L2
LXFL 529 = test system: LXFL 529
DMS-273 = test system: DMS-273
RXF 631 = test system: RXF 631
SNB-78 = test system: SNB-78
HOP-18 = test system: HOP-18
DLD-1 = test system: DLD-1
XF498 = test system: XF498

Structure (SMILES)	GI50 (KM-20L2)	GI50 (LXFL 529)	GI50 (DMS-273)	GI50 (RXF 631)	GI50 (SNB-78)	GI50 (HOP-18)	GI50 (DLD-1)	GI50 (XF498)
CCCCN(CCCC)CC(C(=O)Nc1ccc([N+](=O)[O-])cc1[N+](=O)[O-])/C(C)=N\NC(=O)C[N+](C)(C)C (configuration not stated)	> 100 µM (inactive)	74 µM (inactive)	15.9 µM (inactive)	69.2 µM (inactive)	97.7 µM (inactive)	78.9 µM (inactive)	69.3 µM (inactive)	39.3 µM (inactive)
c1ccc(NCn2cnc3ccccc32)cc1	6.04 µM (inactive)	> 100 µM (inactive)	> 100 µM (inactive)	> 100 µM (inactive)	> 100 µM (inactive)	> 100 µM (inactive)	29.2 µM (inactive)	> 100 µM (inactive)
COC(=O)C(=O)C(C(=O)C(=O)Nc1ccc(F)cc1)c1nc2ccc([N+](=O)[O-])cc2nc1O (configuration not stated)	> 100 µM (inactive)	> 100 µM (inactive)		> 100 µM (inactive)	> 100 µM (inactive)	> 100 µM (inactive)	> 100 µM (inactive)	> 100 µM (inactive)
O=C(CC1(O)C(=O)Nc2ccc([N+](=O)[O-])cc21)c1ccncc1 (configuration not stated)	76.4 µM (inactive)			20.7 µM (inactive)	47.2 µM (inactive)	27.8 µM (inactive)	37.4 µM (inactive)	15.3 µM (inactive)
Fc1ccc(C2SCc3nc4ccccc4n32)cc1F (configuration not stated)	55.5 µM (inactive)	23.4 µM (inactive)	26.5 µM (inactive)	28.8 µM (inactive)	32.2 µM (inactive)	60.4 µM (inactive)	34.2 µM (inactive)	25.4 µM (inactive)
CCOC(=O)/C(C#N)=C\Sc1ccccc1	22.8 µM (inactive)	15 µM (inactive)	16.3 µM (inactive)	15.7 µM (inactive)	28.1 µM (inactive)	> 100 µM (inactive)	18.1 µM (inactive)	28.1 µM (inactive)
CC(C)CCCCCCCCCCCCC(=O)NCC(=O)NC1C(C)OC(Nc2[nH]cnc3ncnc2-3)C(O)C1O (configuration not stated)	< 0.01 µM (active)	0.000588 µM (active)	< 0.01 µM (active)	3.54e-05 µM (active)	0.000646 µM (active)	< 0.01 µM (active)	0.01 µM (active)	< 0.01 µM (active)
CC(c1ccccc1)C(O)S(=O)(=O)O (configuration not stated)	> 100 µM (inactive)	> 100 µM (inactive)	> 100 µM (inactive)	> 100 µM (inactive)	> 100 µM (inactive)	> 100 µM (inactive)		> 100 µM (inactive)
Cc1cc([N+](=O)[O-])ccc1NC(=O)C(=O)C(C(=O)c1ccccc1-c1ccccc1)C1OC(=O)c2ccccc21 (configuration not stated)	3.48 µM (inactive)	15.6 µM (inactive)	4.99 µM (inactive)	4.75 µM (inactive)	17.9 µM (inactive)	14.2 µM (inactive)		5.93 µM (inactive)
